This test relates to panel members. The test can be described thus: Panel-mediated testing of Cannabis accessions with defined cannabinoid profiles (panel N=67, plus anecdotal evidence). Type of test: in vivo, human. An excerpt: This method allowed deduction, and therefore, for the first time, the introduction of a new chemotaxonomic classification system merely based on the cannabinoid composition of the plant samples (strains). 15 chemotypes are defined and many more sub-chemotypes are lately added. The samples given to panel members (accessions) contained Cannabis flos, the dried flower tips of the female Cannabis plant. […] All the 45,000 different “strains” were collected and compared to the panel data and data derived from retrospective (meta-) research and anecdotal evidence mainly originated from users, for both recreative and medicinal usage, from the Netherlands. Accession from Spain is included as a parameter and seemed important for the chemotaxonomic scheme for Cannabis species.
The anecdotal evidence is derived from and the panel members are selected from persons, men and women, of the age of 18 till 72 years old. They consumed cannabis joints or vapor having defined cannabinoid profiles, and record the effect during time. Monitoring takes 24 hours, to include data about wear-off problems after night (the next day). The cannabinoids according to the invention may for example be consumed as follows: • 1—Administered as Cannabis simplex per 50 mg unit dose for self-titration. […]

In the case of `CCCCCc1cc(O)c(C/C=C(\C)CCC=C(C)C)c(O)c1` [Cannabigerol], the “sleep attained by subjects” value (all subjects, in high concentration range "narcotic") was “good or very good deep”. In addition, the Effects result (panel session, vapor, joints or tea potion, ad libitum, effects dosage and patient related) is reported as ““indica” or “stoned” effects; drowsiness”.
